From patent publication US9763901B2 (priority 2015, dated 2017)
pEC50: −log10 of the molar value.

What was measured:
HCV GT1B Replicon = experiment: HCV replicon assay (antiviral, luciferase endpoint); format: cell-based, hepatitis C virus
Excerpt: (§1) Stable HCV replicons of different genotypes may be used for anti-HCV evaluation. We use the subgenomic HCV replicons of genotype 1a (H77 strain), 1b (Conl strain), and 2a (JFH-1 strain), which are Huh7 human hepatoma cell lines that contains an HCV replicon.
The HCV replicon antiviral evaluation assay examines the effects of compounds at six serial dilutions. Human interferon alpha-2b (rIFNα-2b) and/or Sofosbuvir are included in each run as a positive control compound.
(§2) Briefly, the replicon cells are plated at 5,000 cells/well into 96-well plates that are dedicated for the analysis of cell numbers (cytotoxicity) or antiviral activity. On the following day, samples are diluted with assay media and added to the appropriate wells. Cells are processed 72 hours later when the cells are still sub-confluent. For the luciferase endpoint assay, HCV replicon levels are assessed as replicon-derived L uc activity. The concentration of drug that reduces cell viability is assessed by the fluorometric CytoTox-1 cell proliferation assay (Promega), (expressed as cell numbers). For the qRT-PCR/TaqMan assay, total RNA is extracted from the replicon cells using RNeasy 96 kit (Qiagen) according to the manufacturer's protocol. Real-time RTPCR/TaqMan assays are performed to measure copy numbers of the replicon RNA and cellular ribosomal RNA. Where applicable EC50 (concentration inhibiting HCV replicon by 50%), EC90 (concentration inhibiting HCV replicon by 90%), CC50 (concentration decreasing cell viability by 50%), CC90 (concentration decreasing cell viability by 90%) and SI (selectivity indices: CC50/EC50 and CC90/EC90) values are derived.

[1] = Cytotoxicity in HCV replicon cells (CytoTox-1); format: cell-based; details: human, Huh7 hepatoma cells containing a subgenomic HCV replicon, In vitro HCV replicon assay, post infection, read-out: CC50 (concentration decreasing cell viability by 50%)
Experimental: as §1
as §2, with “Where applicable EC50 (concentration inhibiting HCV replicon by 50%), EC90 (concentration inhibiting HCV replicon by 90%), CC50 (concentration decreasing cell viability by 50%), CC90 (concentration decreasing cell viability by 90%) and SI (selectivity indices: CC50/EC50 and CC90/EC90) values are derived.” left out

[2] = test system: cell culture-derived HCV (HCVcc); experiment: microbe, parasite or virus in culture; format: cell-based, hepatitis C virus
Experimental: (§3) Huh7.5 cells are grown in Dulbecco's modified essential media (DMEM), 10% fetal bovine serum (FBS), 1% penicillin-streptomycin (pen-strep), 1% Non-essential amino acids (NEAA) in a 5% CO2 incubator at 37° C. Huh7.5 cells are seeded at 1×10^4 cells per well into 96-well plates according to Southern Research Institute standard format. Test articles are serially diluted with DMEM plus 5% FBS. The diluted compound in the amount of 50 μl is mixed with equal volume of cell culture-derived HCV (HCVcc), then applied to appropriate wells in the plate. Human interferon alpha-2b (rIFNα-2b) and/or Sofosbuvir are included as a positive control. After 72 hr incubation at 37° C., the cells are lysed for measurement of luciferase activity using Renilla Luciferase Assay System (Promega) according to manufacturer's instruction. The number of cells in each well is determined by CytoTox-1 reagent (Promega). Test articles are tested at 6 serial dilutions in triplicate to derive, if applicable, EC50 and EC90 (concentration inhibiting HCVcc infectivity by 50% and 90%, respectively), CC50 (concentration decreasing cell viability by 50%) and SI (selectivity index: CC50/EC50) values (Table 1).

[3] = Cytotoxicity in HCVcc assay (CytoTox-1); format: cell-based; details: human, Huh7.5 cells infected with cell culture-derived HCV (HCVcc), In vitro HCV cc assay, read-out: CC50 (concentration decreasing cell viability by 50%)
Experimental: as §3

## CCCCOc1ccc(CC(=O)NO)cc1 [Bufexamac]
HCV GT1B Replicon; HCV replicon assay
  anti-hepatitis C activity (in words): significant anti-hepatitis C activity
HCV GT1B Replicon; Hepatitis C virus, GT1B, 72 h, read-out: EC50 (concentration inhibiting HCV replicon by 50%)
  pEC50: 4.95
HCV GT1B Replicon; In vitro HCV replicon assay
  Selectivity index (CC50/EC50): >8.85
[1]
  CC50 at 72 h: > 100 µM
[2]; Hepatitis C virus, Huh7.5, 72 h, read-out: EC50 (concentration inhibiting HCVcc infectivity by 50%)
  pEC50: 4.99
[2]; In vitro HCV cc assay
  Selectivity index (CC50/EC50): 9.80
[2]; hepatitis C viral infectivity assay
  anti-hepatitis C activity (in words): significant anti-hepatitis C activity
[3]
  CC50 at 72 h: 100 µM
